Among the data in US11702422B2, “Imidazopyridazines as modulators of IL-17” (Janssen Pharmaceutica NV, priority 2020, dated 2023) are IC50 values, retold here.

Assay [1] relates to IL-17A-induced G-CSF production in human normal keratinocyte (NHK). Nature of the assay: NHK Assay: IL-17A-induced G-CSF production in human normal keratinocytes. Type of assay: cell-based. As to conditions: 24 h, adult normal human keratinocytes, IL-17A 5 ng/mL, simple average if tested more than once. Summed up:
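Adult normal human keratinocytes were seeded at 3000-4000 cells/well. Recombinant human IL-17A was pre-incubated 1 h at rt with titrated compound, then added to cells (final 5 ng/mL IL-17A, 0.2% DMSO, 5% FBS) for 24 h at 37° C. Supernatant G-CSF was measured by HTRF against a standard curve to give IC50.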

The target in assay [2] is IL-17A(FLAG-Tagged): IL-17RA(His-Tagged) (Homo sapiens, UniProt Q16552, K93Q). Briefly: IL-17A(FLAG-Tagged): IL-17RA(His-Tagged) Binding Disruption Eu-HTRF Assay. As to conditions: IL-17A/IL-17RA binding disruption, simple average if tested more than once. In a few lines:
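IC50 comes from a one-site competition fit of the HTRF 665/620 nm ratio. Compound dilutions (2-fold, 22 points) were held 1 h rt with FLAG-tagged IL-17A dimer, then His-tagged IL-17RA plus Eu-cryptate anti-FLAG and D2 anti-His antibodies were added for 2 h rt.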
Background: Time-resolved FRET reads energy transfer from a long-lived donor to a nearby acceptor.

The structures appear in SMILES notation. Where only a bound is given, the exact number is not on record here.

UniProt Q16552, sequence (Q16552 with tags, fused parts or gaps K93Q): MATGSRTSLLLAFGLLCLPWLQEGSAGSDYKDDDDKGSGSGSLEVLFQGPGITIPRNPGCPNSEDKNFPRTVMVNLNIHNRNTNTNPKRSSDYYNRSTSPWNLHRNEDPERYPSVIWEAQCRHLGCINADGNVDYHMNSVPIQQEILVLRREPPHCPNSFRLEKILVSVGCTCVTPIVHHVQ

For orientation: IC50 means the concentration that inhibits the measured activity by half. A lower IC50 goes with greater potency. As for `O=C(CC1CC(F)(F)C1)N[C@@H](c1cnn2cc([C@@H](NC(=O)c3nonc3C3CC3)C3CCC(F)(F)CC3)nc2c1)C1CCOCC1` (relative stereo) [Example 536, 4-Cyclopropyl-N—((S)-(7-((R*)-1-(2-(3,3-difluorocyclobutyl)acetamido)(tetrahydro-2H-pyran-4-yl)methylimidazo[1,2-b]pyridazin-2-yl)(4,4-difluorocyclohexyl)methyl)-1,2,5-oxadiazole-3-carboxamide], the half-maximal inhibitory concentration (IC50) worked out at 12 nM in assay [1] (Homo sapiens, Keratinocyte) and 49 nM in assay [2].

As to `O=C(CCC(F)(F)F)NC(c1cnn2cc([C@@H](NC(=O)c3cnn(CCC(F)(F)F)c3)C3CCC(F)(F)CC3)nc2c1)C1CC1` (single isomer, unassigned) [Example 6, N—((S)-(7-((R*)-Cyclopropyl(4,4,4-trifluorobutanamido)methyl)imidazo[1,2-b]pyridazin-2-yl)(4,4-difluorocyclohexyl)methyl)-1-(3,3,3-trifluoropropyl)-1H-pyrazole-4-carboxamide], the IC50 came out at 570 nM in assay [1] and 290 nM in assay [2].

On to `O=C(CCC(F)(F)F)NC(c1cnn2cc([C@@H](NC(=O)c3cnn(CCC(F)(F)F)c3)C3CCC(F)(F)CC3)nc2c1)C1CC1` (single isomer, unassigned) [Example 7, N—((S)-(7-((S*)-Cyclopropyl(4,4,4-trifluorobutanamido)methyl)imidazo[1,2-b]pyridazin-2-yl)(4,4-difluorocyclohexyl)methyl)-1-(3,3,3-trifluoropropyl)-1H-pyrazole-4-carboxamide], for which the IC50 in assay [1] is more than 20000 nM; in assay [2] it was 4900 nM.

With `O=C(CC1CC(F)(F)C1)NC(c1cnn2cc([C@@H](NC(=O)c3cnn(CCC(F)(F)F)c3)C3CCC(F)(F)CC3)nc2c1)C1CC1` (single isomer, unassigned) [Example 8, N—((S)-(7-((R*)-Cyclopropyl(2-(3,3-difluorocyclobutyl)acetamido)methyl)imidazo[1,2-b]pyridazin-2-yl)(4,4-difluorocyclohexyl)methyl)-1-(3,3,3-trifluoropropyl)-1H-pyrazole-4-carboxamide], the 50% inhibitory concentration (IC50) in assay [1] is 360 nM; in assay [2], 220 nM.

Regarding `O=C(CC1CC(F)(F)C1)NC(c1cnn2cc([C@@H](NC(=O)c3cnn(CCC(F)(F)F)c3)C3CCC(F)(F)CC3)nc2c1)C1CC1` (single isomer, unassigned) [Example 9, N—((S)-(7-((S*)-Cyclopropyl(2-(3,3-difluorocyclobutyl)acetamido)methyl)imidazo[1,2-b]pyridazin-2-yl)(4,4-difluorocyclohexyl)methyl)-1-(3,3,3-trifluoropropyl)-1H-pyrazole-4-carboxamide], the IC50 was more than 20000 nM in assay [1] and 8300 nM in assay [2].

Consider `CC(C)n1nccc1C(=O)N[C@H](c1cn2ncc(C(NC(=O)CC(C(F)(F)F)C(F)(F)F)C3CC3)cc2n1)C1CCC(F)(F)CC1` (single isomer, unassigned) [Example 10, N—((S)-(7-((R*)-Cyclopropyl(4,4,4-trifluoro-3(trifluoromethyl)butanamido)methyl)imidazo[1,2-b]pyridazin-2-yl)(4,4-difluorocyclohexyl)methyl)-1-isopropyl-1H-pyrazole-5-carboxamide], for which the 50% inhibitory concentration (IC50) turned out to be 44 nM in assay [1] and 210 nM in assay [2].

In the case of `CC(C)n1nccc1C(=O)N[C@H](c1cn2ncc(C(NC(=O)CC(C(F)(F)F)C(F)(F)F)C3CC3)cc2n1)C1CCC(F)(F)CC1` (single isomer, unassigned) [Example 11, N-((S)-(7-((S*)-Cyclopropyl(4,4,4-trifluoro-3-(trifluoromethyl)butanamido)methyl)imidazo[1,2-b]pyridazin-2-yl)(4,4-difluorocyclohexyl)methyl)-1-isopropyl-1H-pyrazole-5-carboxamide], the concentration for half-maximal inhibition (IC50) in assay [1] is 1400 nM; in assay [2], 690 nM.

Turning to `O=C(CCC(F)(F)F)NC(c1cnn2cc([C@@H](NC(=O)c3ccccc3)C3CCC(F)(F)CC3)nc2c1)C1CC1` (single isomer, unassigned) [Example 12, N—((S)-(7-((R*)-Cyclopropyl(4,4,4-trifluorobutanamido)methyl)imidazo[1,2-b]pyridazin-2-yl)(4,4-difluorocyclohexyl)methyl)benzamide], the IC50 in assay [1] was found to be 180 nM; in assay [2] it was 85 nM.

Regarding `CC(C)n1nccc1C(=O)N[C@H](c1cn2ncc(C(NC(=O)CCC(F)(F)F)C3CC3)cc2n1)C1CCC(F)(F)CC1` (single isomer, unassigned) [Example 14, N—((S)-(7-((R*)-Cyclopropyl(4,4,4-trifluorobutanamido)methyl)imidazo[1,2-b]pyridazin-2-yl)(4,4-difluorocyclohexyl)methyl)-1-isopropyl-1H-pyrazole-5-carboxamide], the IC50 in assay [1] is 50 nM; in assay [2], 120 nM.

Turning to `CC(C)n1nccc1C(=O)N[C@H](c1cn2ncc(C(NC(=O)CCC(F)(F)F)C3CC3)cc2n1)C1CCC(F)(F)CC1` (single isomer, unassigned) [Example 15, N—((S)-(7-((S*)-Cyclopropyl(4,4,4-trifluorobutanamido)methyl)imidazo[1,2-b]pyridazin-2-yl)(4,4-difluorocyclohexyl)methyl)-1-isopropyl-1H-pyrazole-5-carboxamide], the values for the IC50 in assay [1] and in assay [2] were 4800 nM and 1900 nM, respectively.

Regarding `O=C(CC(C(F)(F)F)C(F)(F)F)NC(c1cnn2cc([C@@H](NC(=O)c3ccccc3)C3CCC(F)(F)CC3)nc2c1)C1CC1` (single isomer, unassigned) [Example 16, N—((S)-(7-((R*)-Cyclopropyl(4,4,4-trifluoro-3-(trifluoromethyl)butanamido)methyl)imidazo[1,2-b]pyridazin-2-yl)(4,4-difluorocyclohexyl)methyl)benzamide], the 50% inhibitory concentration (IC50) in assay [1] and in assay [2] was 130 nM in each case.

Consider `O=C(CC(C(F)(F)F)C(F)(F)F)NC(c1cnn2cc([C@@H](NC(=O)c3ccccc3)C3CCC(F)(F)CC3)nc2c1)C1CC1` (single isomer, unassigned) [Example 17, N—((S)-(7-((S*)-Cyclopropyl(4,4,4-trifluoro-3-(trifluoromethyl)butanamido)methyl)imidazo[1,2-b]pyridazin-2-yl)(4,4-difluorocyclohexyl)methyl)benzamide], for which the concentration for half-maximal inhibition (IC50) stood at 1200 nM in assay [1] and 1300 nM in assay [2].

As to `O=C(CCC(F)(F)F)NC(c1cnn2cc([C@@H](NC(=O)c3cnn(CCC(F)(F)F)n3)C3CCC(F)(F)CC3)nc2c1)C1CC1` (single isomer, unassigned) [Example 18, N—((S)-(7-((R*)-Cyclopropyl(4,4,4-trifluorobutanamido)methyl)imidazo[1,2-b]pyridazin-2-yl)(4,4-difluorocyclohexyl)methyl)-2-(3,3,3-trifluoropropyl)-2H-1,2,3-triazole-4-carboxamide], the values for the IC50 in assay [1] and in assay [2] were 420 nM and 190 nM, respectively.

On to `O=C(CCC(F)(F)F)NC(c1cnn2cc([C@@H](NC(=O)c3cnn(CCC(F)(F)F)n3)C3CCC(F)(F)CC3)nc2c1)C1CC1` (single isomer, unassigned) [Example 19, N—((S)-(7-((S*)-Cyclopropyl(4,4,4-trifluorobutanamido)methyl)imidazo[1,2-b]pyridazin-2-yl)(4,4-difluorocyclohexyl)methyl)-2-(3,3,3-trifluoropropyl)-2H-1,2,3-triazole-4-carboxamide], for which the IC50 in assay [1] stood at 3800 nM; in assay [2], 3900 nM.
